Experimental data as given in ChEMBL document CHEMBL1132758, “Synthesis and estrogenic activities of novel 7-thiosubstituted estratriene derivatives” (Bioorg Med Chem Lett, 2000).

Tests used:
[1] = target: T1, Estrogen receptor (Homo sapiens, UniProt P03372)
T1 sequence (P03372 whole entry): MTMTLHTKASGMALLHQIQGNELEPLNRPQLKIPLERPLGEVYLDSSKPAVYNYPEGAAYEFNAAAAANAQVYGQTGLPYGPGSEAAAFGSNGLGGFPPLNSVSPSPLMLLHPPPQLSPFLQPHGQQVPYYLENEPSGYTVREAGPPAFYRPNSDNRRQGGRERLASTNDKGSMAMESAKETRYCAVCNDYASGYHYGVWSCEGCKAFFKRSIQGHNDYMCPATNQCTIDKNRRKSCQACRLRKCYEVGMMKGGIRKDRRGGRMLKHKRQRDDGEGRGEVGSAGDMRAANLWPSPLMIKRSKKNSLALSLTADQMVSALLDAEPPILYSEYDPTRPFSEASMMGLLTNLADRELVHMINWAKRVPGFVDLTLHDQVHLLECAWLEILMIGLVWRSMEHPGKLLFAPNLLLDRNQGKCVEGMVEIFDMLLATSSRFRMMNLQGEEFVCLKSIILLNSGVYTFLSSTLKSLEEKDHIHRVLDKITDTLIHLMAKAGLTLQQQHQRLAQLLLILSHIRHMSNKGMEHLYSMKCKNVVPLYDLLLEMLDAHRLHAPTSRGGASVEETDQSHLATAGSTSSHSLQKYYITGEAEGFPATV
Description: Agonist effect on transcriptional activation in MCF-7 cells expressing estrogen receptor alpha

[2] = target: T2, Estrogen receptor beta (Homo sapiens, UniProt Q92731)
[3] = target: T1, Estrogen receptor; remark: listed apart in the source
[4] = target: T1, Estrogen receptor; remark: listed apart in the source
Description: Antagonist effect on transcriptional activation in MCF-7 cells expressing estrogen receptor alpha

[5] = target: T1, Estrogen receptor; conditions: mcf7
[6] = target: T1, Estrogen receptor; conditions: mcf7; remark: listed apart in the source
[7] = target: T2, Estrogen receptor beta; assay: Displacement of [3H]17-beta-estradiol from human Estrogen receptor beta; Not active means no effect at < 1000 nM

T2 sequence (Q92731 whole entry): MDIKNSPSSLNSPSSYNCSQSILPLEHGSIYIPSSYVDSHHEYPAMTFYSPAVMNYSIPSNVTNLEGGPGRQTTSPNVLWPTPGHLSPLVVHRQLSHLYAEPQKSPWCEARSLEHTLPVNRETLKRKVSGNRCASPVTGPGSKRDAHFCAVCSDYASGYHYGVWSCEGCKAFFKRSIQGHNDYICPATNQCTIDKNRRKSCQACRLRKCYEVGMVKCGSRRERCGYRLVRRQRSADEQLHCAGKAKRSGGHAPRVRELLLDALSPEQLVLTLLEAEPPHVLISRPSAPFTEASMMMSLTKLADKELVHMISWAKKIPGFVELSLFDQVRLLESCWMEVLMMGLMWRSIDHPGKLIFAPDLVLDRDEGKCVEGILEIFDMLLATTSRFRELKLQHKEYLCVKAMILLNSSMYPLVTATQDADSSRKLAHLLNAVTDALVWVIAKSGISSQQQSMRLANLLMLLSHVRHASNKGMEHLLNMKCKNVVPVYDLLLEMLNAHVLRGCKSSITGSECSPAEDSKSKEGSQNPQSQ

SMILES | EC50 [1] | IC50 [2] | IC50 [3] | IC50 [4] | IC50 [5] | EC50 [6] | IC50 [7]
CCCCN(C)C(=O)CCCCCCCCCCS[C@H]1[C@@H]2[C@H](CC[C@]3(C)[C@@H](O)CC[C@@H]23)c2ccc(O)cc2[C@H]1O | 40 nM | 32 nM | 32 nM | 316 nM | – | – | –
C[C@]12CC[C@@H]3c4ccc(O)cc4C(O)[C@@H](Sc4ccc(Br)cc4)[C@H]3[C@@H]1CC[C@@H]2O (some centres not stated) | 7 nM | 63 nM | 397 nM | – | Not Active | – | –
CCCCN(C)C(=O)CCCCCCCCCCS[C@@H]1Cc2cc(O)ccc2[C@H]2CC[C@]3(C)[C@@H](O)CC[C@H]3[C@@H]21 | – | 9 nM | 9 nM | 3.5 nM | – | Not Active | –
CC(=O)O[C@H]1CC[C@H]2[C@@H]3[C@H](Sc4ccc(Br)cc4)C(=O)c4cc(O)ccc4[C@H]3CC[C@]12C | – | – | – | – | Not Active | – | Not Active
CN(C)C(=O)/C=C/c1ccc(S[C@@H]2Cc3cc(O)ccc3[C@H]3CC[C@]4(C)[C@@H](O)CC[C@H]4[C@@H]32)cc1 | 173 nM | 59 nM | 94 nM | – | Not Active | – | –
COc1ccc2c(c1)C[C@@H](Sc1ccc(OCCN3CCCCC3)cc1)[C@@H]1[C@@H]2CC[C@]2(C)[C@@H](O)CC[C@@H]12 | – | – | – | – | – | – | Not Active
C[C@]12CC[C@@H]3c4ccc(O)cc4C[C@@H](Sc4ccc(/C=C/C(=O)O)cc4)[C@H]3[C@@H]1CC[C@@H]2O | 13 nM | 21 nM | 46 nM | – | Not Active | – | –
CCCCN(C)C(=O)CCCCCCCCCCS[C@@H]1C(=O)c2cc(O)ccc2[C@H]2CC[C@]3(C)[C@@H](O)CC[C@H]3[C@H]12 | 28 nM | 37 nM | 33 nM | 519 nM | – | – | –
